Here are results for seven compounds from article PMC6635827 (Drug Design, Development and Therapy, 2019).

Test [1] addresses T1, mushroom tyrosinase (Agaricus bisporus, UniProt C7FF04). Particulars: cited from earlier work.
The target of test [2] is T1, mushroom tyrosinase. Description: Mushroom tyrosinase inhibition assay. The following applies: for inhibition at 30 µM: read-out: percent inhibition. The test is classed as biochemical.
The test system of another test is tyrosinase. Description: Tyrosinase zymography. It counts as biochemical, mushroom. The following applies: L-DOPA staining, compared to untreated control.

The IC50 is the concentration that gives 50% inhibition. One may read the inhibition as the percentage by which the read-out fell short of the control.

Molecules are shown by their SMILES. Like-named read-outs stand apart in the source and are kept apart here.

T1 sequence (C7FF04 1-392): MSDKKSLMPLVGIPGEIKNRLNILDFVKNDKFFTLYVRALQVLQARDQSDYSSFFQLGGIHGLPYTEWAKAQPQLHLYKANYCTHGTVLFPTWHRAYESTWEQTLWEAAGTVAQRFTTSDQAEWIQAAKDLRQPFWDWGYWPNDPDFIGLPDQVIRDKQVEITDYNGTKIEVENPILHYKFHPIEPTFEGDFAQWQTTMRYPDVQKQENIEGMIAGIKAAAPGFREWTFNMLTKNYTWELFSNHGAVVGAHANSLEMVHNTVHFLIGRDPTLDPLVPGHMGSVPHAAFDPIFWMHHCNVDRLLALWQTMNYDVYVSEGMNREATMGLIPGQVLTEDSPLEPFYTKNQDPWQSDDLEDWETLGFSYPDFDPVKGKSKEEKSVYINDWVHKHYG

`O=c1cc[nH]c(=S)[nH]1` [thiouracil]: at mushroom tyrosinase [1], the 50% inhibitory concentration (IC50) was 128 µM and the Inhibition type result is reported as “noncompetitive inhibitors”.
In the case of `CC(=O)Nc1ccc(N=Nc2c(N)nc(N)nc2Cl)cc1` [Compound 1d, N-(4-((2,4-diamino-6-chloropyrimidin-5-yl)diazenyl)phenyl) acetamide], the midpoint of inhibition on mushroom tyrosinase [2], the IC50, lay at 24.5 µM. Further, in the test on tyrosinase, the “band intensity on zymogram (inhibitory effect on tyrosinase activity)” value was “lightest bands”.
On to `COc1ccc(N=Nc2c(N)nc(N)nc2N)cc1` [Compound 2d, 5-((4-methoxyphenyl)diazenyl) pyrimidine-2,4,6-triamine], for which the “band intensity on zymogram (inhibitory effect on tyrosinase activity)” value with tyrosinase was “minimal inhibitory effect”.
On to `Cc1cc(=O)[nH]c(=S)[nH]1` [methylthiouracil], for which, on mushroom tyrosinase [1], the half-maximal inhibitory concentration (IC50) is 142 µM and the Inhibition type result is reported as “noncompetitive inhibitors”.
Consider `Nc1nc(N)c(N=Nc2ccccc2[N+](=O)[O-])c(Cl)n1` [Compound 1a, 6-chloro-5-((2-nitrophenyl)diazenyl) pyrimidine-2,4-diamine], for which the “band intensity on zymogram (inhibitory effect on tyrosinase activity)” value in the test with tyrosinase is “lightest bands”.
As for `COc1ccc(N=Nc2c(N)nc(N)nc2Cl)cc1` [Compound 1e, 6-chloro-5-((4-methoxyphenyl)diazenyl) pyrimidine-2,4-diamine], the inhibition at 30 µM at mushroom tyrosinase [2] is 55.1%.
Consider `Nc1nc(N)c(N=Nc2ccc([N+](=O)[O-])cc2)c(Cl)n1` [Compound 1b, 6-chloro-5-((4-nitrophenyl)diazenyl) pyrimidine-2,4-diamine], for which, on mushroom tyrosinase [2], the inhibition at 30 µM is 23.7%.
